# Data as given in patent publication US11701382B2, “Treatment of post-operative joint pain with polysulfated polysaccharides” (PARADIGM BIOPHARMACEUTICALS LTD., priority 2018, dated 2023).
# Experiments:
# Type in all cases: in vivo, human
# [1] = system: patient with left knee osteoarthritis and persistent right knee pain following TKR; experiment: Safety and tolerability (adverse events) of PPS under TGA SAS(B); conditions: PPS 2 mg/kg SC twice weekly for 3 weeks, one patient
# Procedure: (§1) Example 1 is a study of the safety, tolerability and result of a patient treated with PPS suffering from degenerative osteoarthritis in the left knee with bone marrow edema lesions (BMEL), as assessed by magnetic resonance imaging (MRI), and from persistent pain following total right knee arthroplasty.
# The patient was treated with PPS under the TGA Special Access Scheme (B). (Approval to use PPS as treatment for the patient was acquired from Department of Health—Therapeutic Goods Administration, Australian Government under the Special Access Scheme (SAS) since the injectable form of PPS was not a registered product in Australia.)
# (§2) They were treated with PPS. The treatment regimen consisted of administration of PPS, at a preferred dose of 2 mg/kg of body weight, twice weekly for three weeks by subcutaneous injection (total of six injections).
# [2] = system: patient with degenerative osteoarthritis in the left knee; experiment: Numerical Rating Scale (NRS) pain score, left knee with degenerative osteoarthritis, patient treated with PPS; conditions: left knee (degenerative OA); PPS 2 mg/kg SC twice weekly for 3 weeks (6 injections); 0-10 scale; before PPS 8
# Source text: as §1
# (§3) The patient had end stage osteroarthrtis (OA) in their right knee. They underwent a total knee replacement (TKR) in the right knee and had aseptic, persistent pain from that joint post replacement. They also had pain in their left knee (degenerative osteoarthritis) and was recommended to have a TKR in that joint.
# as §2
# (§4) The protocol featured the following: • Treatment regimen: 2× weekly subcutaneous injections of PPS (preferred dose 2 mg/kg) for 3 weeks (total of 6 injections)
# Numerical Rating Scale (NRS) is an 11-point scale (0-10). A state of no pain is 0 and the worst pain imaginable is 10.
# [3] = system: patient with persistent pain following total right knee arthroplasty; experiment: Aseptic, persistent post-operative pain in right artificial knee joint after total knee replacement, patient treated with PPS; conditions: PPS 2 mg/kg SC twice weekly for 3 weeks
# Source text: as §1, §3, §2, §4
# [4] = system: patient with degenerative osteoarthritis in the left knee; experiment: Lysholm Knee Score (knee function), left knee, patient treated with PPS; conditions: left knee (degenerative OA); PPS 2 mg/kg SC twice weekly for 3 weeks; 0-100 scale; before PPS 58
# Source text: as §1, §3, §2, §4
# Lysholm Knee Score is a total score of 0-100 is calculated based on the results from the eight functional components of the Lysholm knee score scale: Limp (5 points), Support (5 points), Locking (15 points), Instability (25 points), Pain (25 points), Swelling (10 points), Stair climbing (10 points), and Squatting (5 points). […]
# [5] = system: patient with degenerative osteoarthritis in the left knee with bone marrow edema lesions; experiment: Bone marrow edema lesions (BMEL) assessed by MRI, left knee, patient treated with PPS
# Source text: as §1, §3, §2, §4
substance,measurement,setting,value
Pentosan polysulfate [PPS],adverse events,[1],no adverse events were reported
same,After PPS/NRS Pain,[2],0
same,"aseptic, persistent pain in the right artificial joint",[3],zero
same,After PPS/Lysholm Knee Score,[4],99
same,BMEL reduction as assessed by magnetic resonance imaging,[5]; PPS 2 mg/kg SC twice weekly for 3 weeks,clearly visible BMEL reduction
same,"bone marrow edema stage, post-treatment MRI","[5]; after PPS, at baseline up to two thirds",negligible
